From article PMC11126801 (The Journal of Biological Chemistry, 2024)

Columns and labels:
HCN3 [1] = biological target: T1, HCN3 (Homo sapiens, UniProt Q9P1Z3); assay: whole-cell patch clamp of HCN3 currents in transfected HeLa cells; format: cell-based; set-up: human HCN3 (WT) expressed in HeLa cells
T1 sequence (Q9P1Z3 1-774): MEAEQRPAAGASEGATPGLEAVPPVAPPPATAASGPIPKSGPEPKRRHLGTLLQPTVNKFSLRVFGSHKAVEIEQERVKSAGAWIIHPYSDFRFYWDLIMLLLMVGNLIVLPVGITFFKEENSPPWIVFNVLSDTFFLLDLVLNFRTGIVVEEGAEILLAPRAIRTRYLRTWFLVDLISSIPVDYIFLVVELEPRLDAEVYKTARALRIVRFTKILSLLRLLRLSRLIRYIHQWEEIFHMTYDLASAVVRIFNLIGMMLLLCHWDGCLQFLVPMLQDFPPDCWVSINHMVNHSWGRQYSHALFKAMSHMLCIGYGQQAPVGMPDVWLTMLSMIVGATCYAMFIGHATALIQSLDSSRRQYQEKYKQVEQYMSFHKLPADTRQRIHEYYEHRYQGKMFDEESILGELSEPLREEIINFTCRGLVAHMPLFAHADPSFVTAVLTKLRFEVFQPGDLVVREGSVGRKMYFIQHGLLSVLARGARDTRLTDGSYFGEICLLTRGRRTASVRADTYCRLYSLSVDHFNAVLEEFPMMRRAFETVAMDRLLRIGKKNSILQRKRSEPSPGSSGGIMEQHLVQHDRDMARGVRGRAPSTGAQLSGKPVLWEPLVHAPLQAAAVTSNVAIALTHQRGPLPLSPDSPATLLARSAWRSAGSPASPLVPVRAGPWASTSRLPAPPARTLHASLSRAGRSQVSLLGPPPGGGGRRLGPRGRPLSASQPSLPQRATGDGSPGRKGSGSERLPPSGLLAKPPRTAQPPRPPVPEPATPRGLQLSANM

HCN3 [2] = biological target: T1, HCN3; assay: cryo-EM structure of the apo channel ([…] Å) with CHS density; IC50 by whole-cell patch clamp; format: cell-based
[3] = biological target: the molecule itself; assay: cryo-EM structure; single-particle cryo-EM of MBP-HCN3 in 0.1% digitonin, 300 mM KCl, 2 mM DTT, 20 mM Tris pH 8.0; ligand-free sample and sample with 5 mM cAMP; final refinement in C4 symmetry

CC(C)CCC[C@@H](C)[C@H]1CC[C@H]2[C@@H]3CC=C4C[C@@H](O)CC[C@]4(C)[C@H]3CC[C@]12C [cholesterol]
IC50 (HCN3 [1]): 480 µM

CC(C)CCC[C@@H](C)[C@H]1CC[C@H]2[C@@H]3CC=C4C[C@@H](OC(=O)CCC(=O)O)CC[C@]4(C)[C@H]3CC[C@]12C [cholesteryl hemisuccinate]
IC50 (HCN3 [2]): 1450 µM

B1: full-length wild-type human HCN3 with its N terminus fused to maltose-binding protein (MBP) (natural protein, UniProt Q9P1Z3 1-774, looked up)
chain: T1 sequence (Q9P1Z3 1-774)
notes: the tag was not cleaved for the structures; Modelled residues: 50-151, 156-191, 210-476, 484-543 (apo); also 477-483 with cAMP; also called HCN3 channel; apo-HCN3; source: HEK293S cells, BacMam transduction, purified (MBP beads, Superose 6 SEC, digitonin); not shown: MBP, N-terminal, kept
stoichiometry N [3]: 4
